The values below come from patent publication US7265129B2, “Anti-infective biaryl compounds” (priority 2002, dated 2007).

The subject of one assay is S. aureus ATCC 33591. Description: MIC, NCCLS broth microdilution, S. aureus ATCC 33591. It is filed as cell-based, Staphylococcus aureus. The text has this: (§1) It vitro biological activity data were collected for a variety of microorganisms, including Bacillus cereus (ATCC 11778), Staphylococcus aureus (ATCC 33591; ATCC 27660, a methicillin resistant strain (MRSA); ATCC 13709, a methicillin sensitive strain (MSSA)), Enterococcus faecalis (ATCC 29212), and Streptococcus pneumoniae (ATCC 49619). Additionally, antifungal activity data were collected for Candida albicans (ATCC 38247).
(§2) Compounds according to this invention were screened for their in vitro activities against selected species of bacteria and fungi. The minimal inhibition concentration (MIC) of these compounds was determined using the National Committee for Clinical Laboratory Standards (NCCLS) broth microdilution assay in microtiter plates, as set forth in: (1) the guidelines of the National Committee for Clinical Laboratory Standards (NCCLS) Document M7-A4 (NCCLS, 1997); (2) the guidelines of the National Committee for Clinical Laboratory Standards (NCCLS) Document M11-A4 (NCCLS, 1997); and (3) the guidelines and reference method of the National Committee for Clinical Laboratory Standards (NCCLS) Document M27-T (NCCLS, 1995). For antifungal assays, the method recommended in Murray, P R., 1995 Manual of Clinical Microbiology (ASM Press, Washington, D.C.), was employed.

The test system of another assay is S. aureus ATCC 13709. The experiment in a line: MIC, NCCLS broth microdilution, S. aureus MSSA. To be noted: S. aureus ATCC 13709, methicillin sensitive strain (MSSA). It is filed as cell-based, Staphylococcus aureus.
From the text: as §1, §2
Background: Dilution methods test growth across graded concentrations, often in twofold steps.

The subject of a further assay is C. albicans ATCC 38247. The experiment in a line: MIC, antifungal assay, C. albicans. It is filed as cell-based, Candida albicans.
From the text: as §1, §2

The next assay deals with B. cereus ATCC 11778. The experiment in a line: MIC, NCCLS broth microdilution, B. cereus. It is filed as cell-based, Bacillus cereus.
From the text: as §1, §2

In another assay the test system is S. pneumoniae ATCC 49619. Description: MIC, NCCLS broth microdilution, S. pneumoniae. It is filed as cell-based, Streptococcus pneumoniae.
From the text: as §1, §2

Another assay relates to S. aureus ATCC 27660. The experiment in a line: MIC, NCCLS broth microdilution, S. aureus MRSA. Particulars: S. aureus ATCC 27660, methicillin resistant strain (MRSA). The class given is cell-based, Staphylococcus aureus.
From the text: as §1, §2

A further assay deals with E. faecalis ATCC 29212. Description: MIC, NCCLS broth microdilution, E. faecalis. The class given is cell-based, Enterococcus faecalis.
From the text: as §1, §2

For `Cc1cccc2nc(-c3cc(NC(=O)c4cc(NC(=O)c5cc6ccccc6cn5)cn4C)cn3C)[nH]c12` [Compound A-3], the “Minimum Inhibitory Concentration (MIC), organism F” value in the assay on S. aureus ATCC 33591 was greater than 32 µg/mL. The “Minimum Inhibitory Concentration (MIC), organism D” value with S. aureus ATCC 13709 is greater than 32 µg/mL. Also, the “Minimum Inhibitory Concentration (MIC), organism B” value in the assay on C. albicans ATCC 38247 was greater than 32 µg/mL. Further, the “Minimum Inhibitory Concentration (MIC), organism A” value with B. cereus ATCC 11778 is greater than 32 µg/mL. In the assay on S. pneumoniae ATCC 49619, the “Minimum Inhibitory Concentration (MIC), organism G” value is greater than 32 µg/mL. Further, the “Minimum Inhibitory Concentration (MIC), organism E” value in the assay with S. aureus ATCC 27660 is greater than 32 µg/mL. The “Minimum Inhibitory Concentration (MIC), organism C” value with E. faecalis ATCC 29212 is greater than 32 µg/mL.

For the compound `Cn1cc(NC(=O)c2cc3ccccc3cn2)cc1C(=O)Nc1cc(-c2nc3cc(O)ccc3[nH]2)n(C)c1` [Compound A-6], the “Minimum Inhibitory Concentration (MIC), organism F” value in the assay with S. aureus ATCC 33591 is listed as “+++ (MIC ≦ 4 μg/mL)”. Further, in the assay on S. aureus ATCC 13709, the “Minimum Inhibitory Concentration (MIC), organism D” value is “+++ (MIC ≦ 4 μg/mL)”. The “Minimum Inhibitory Concentration (MIC), organism B” value in the assay with C. albicans ATCC 38247 was greater than 32 µg/mL. Also, the “Minimum Inhibitory Concentration (MIC), organism A” value in the assay with B. cereus ATCC 11778 is “+++ (MIC ≦ 4 μg/mL)”. In the assay with S. pneumoniae ATCC 49619, the “Minimum Inhibitory Concentration (MIC), organism G” value is reported as “+++ (MIC ≦ 4 μg/mL)”. For the same compound, in the assay on S. aureus ATCC 27660, the “Minimum Inhibitory Concentration (MIC), organism E” value is “+++ (MIC ≦ 4 μg/mL)”. The “Minimum Inhibitory Concentration (MIC), organism C” value in the assay on E. faecalis ATCC 29212 was “+++ (MIC ≦ 4 μg/mL)”.

With `Cn1cc(NC(=O)c2cc3ccccc3cn2)cc1C(=O)Nc1cc(-c2nc3ccc(N)cc3[nH]2)n(C)c1` [Compound A-8], the “Minimum Inhibitory Concentration (MIC), organism F” value in the assay with S. aureus ATCC 33591 was “+++ (MIC ≦ 4 μg/mL)”. The “Minimum Inhibitory Concentration (MIC), organism D” value with S. aureus ATCC 13709 is “+++ (MIC ≦ 4 μg/mL)”. The “Minimum Inhibitory Concentration (MIC), organism B” value in the assay with C. albicans ATCC 38247 is greater than 32 µg/mL. Further, the “Minimum Inhibitory Concentration (MIC), organism A” value in the assay on B. cereus ATCC 11778 is listed as “++ (4 < MIC < 12 μg/mL)”. For the same compound, in the assay on S. pneumoniae ATCC 49619, the “Minimum Inhibitory Concentration (MIC), organism G” value is reported as “+++ (MIC ≦ 4 μg/mL)”. Besides, the “Minimum Inhibitory Concentration (MIC), organism E” value in the assay on S. aureus ATCC 27660 is given as “+++ (MIC ≦ 4 μg/mL)”. Moreover, the “Minimum Inhibitory Concentration (MIC), organism C” value in the assay on E. faecalis ATCC 29212 is recorded as “+++ (MIC ≦ 4 μg/mL)”.

On to `COc1cc(F)ccc1C(=O)Nc1cc(C(=O)Nc2cc(-c3nc4ccccc4[nH]3)n(C)c2)n(CCCN(C)C)c1` [Compound A-20], for which the “Minimum Inhibitory Concentration (MIC), organism D” value in the assay on S. aureus ATCC 13709 was “+++ (MIC ≦ 4 μg/mL)”. In addition, in the assay on C. albicans ATCC 38247, the “Minimum Inhibitory Concentration (MIC), organism B” value is on record as “+ (12 ≦ MIC ≦ 32 μg/mL)”. The “Minimum Inhibitory Concentration (MIC), organism A” value in the assay on B. cereus ATCC 11778 is reported as “+++ (MIC ≦ 4 μg/mL)”. Further, the “Minimum Inhibitory Concentration (MIC), organism G” value in the assay on S. pneumoniae ATCC 49619 is recorded as “+++ (MIC ≦ 4 μg/mL)”. In the assay on S. aureus ATCC 27660, the “Minimum Inhibitory Concentration (MIC), organism E” value is recorded as “+++ (MIC ≦ 4 μg/mL)”. Moreover, in the assay with E. faecalis ATCC 29212, the “Minimum Inhibitory Concentration (MIC), organism C” value was “+++ (MIC ≦ 4 μg/mL)”.

As for `COc1cc(Cl)ccc1C(=O)Nc1cc(C(=O)Nc2cc(-c3nc4ccccc4[nH]3)n(C)c2)n(CCCN(C)C)c1` [Compound A-21], the “Minimum Inhibitory Concentration (MIC), organism D” value in the assay on S. aureus ATCC 13709 was “++ (4 < MIC < 12 μg/mL)”. Moreover, the “Minimum Inhibitory Concentration (MIC), organism B” value with C. albicans ATCC 38247 is “+ (12 ≦ MIC ≦ 32 μg/mL)”. The “Minimum Inhibitory Concentration (MIC), organism A” value in the assay on B. cereus ATCC 11778 is given as “+++ (MIC ≦ 4 μg/mL)”. In addition, the “Minimum Inhibitory Concentration (MIC), organism G” value with S. pneumoniae ATCC 49619 is “+++ (MIC ≦ 4 μg/mL)”. For the same compound, the “Minimum Inhibitory Concentration (MIC), organism E” value in the assay on S. aureus ATCC 27660 is on record as “+++ (MIC ≦ 4 μg/mL)”. Also, in the assay on E. faecalis ATCC 29212, the “Minimum Inhibitory Concentration (MIC), organism C” value was “+++ (MIC ≦ 4 μg/mL)”.

On to `CN(C)CCCn1cc(NC(=O)c2sc3ccccc3c2Cl)cc1C(=O)Nc1cc(-c2nc3ccccc3[nH]2)n(C)c1` [Compound A-22], for which, in the assay with S. aureus ATCC 13709, the “Minimum Inhibitory Concentration (MIC), organism D” value is recorded as “++ (4 < MIC < 12 μg/mL)”. Further, in the assay with C. albicans ATCC 38247, the “Minimum Inhibitory Concentration (MIC), organism B” value is reported as “+ (12 ≦ MIC ≦ 32 μg/mL)”. For the same compound, the “Minimum Inhibitory Concentration (MIC), organism A” value in the assay on B. cereus ATCC 11778 was “+++ (MIC ≦ 4 μg/mL)”. In addition, the “Minimum Inhibitory Concentration (MIC), organism G” value in the assay with S. pneumoniae ATCC 49619 is given as “++ (4 < MIC < 12 μg/mL)”. Further, the “Minimum Inhibitory Concentration (MIC), organism E” value in the assay with S. aureus ATCC 27660 was “++ (4 < MIC < 12 μg/mL)”. Moreover, the “Minimum Inhibitory Concentration (MIC), organism C” value in the assay with E. faecalis ATCC 29212 is given as “++ (4 < MIC < 12 μg/mL)”.
